From patent US8283336B2, “Unit dosage for brain health” (N. V. Nutricia, priority 2007, dated 2012)

System: not given
Assay: not given
Details: per 1.0 mg of the tocopherol equivalent; cited from earlier work

| SMILES | IU vitamin E | x mg α-TE |
| --- | --- | --- |
| Cc1c(C)c2c(c(C)c1O)CC[C@@](C)(CCC[C@H](C)CCC[C@H](C)CCCC(C)C)O2 [RRR-α-tocopherol] | 1.49 IU | 1.0 mg α-TE |
| CC(C)=CCC/C(C)=C/CC/C(C)=C/CC[C@]1(C)CCc2c(C)c(O)c(C)c(C)c2O1 [RRR-α-tocotrienol] | 0.75 IU | 0.50 mg α-TE |
| Cc1cc(O)c(C)c2c1O[C@](C)(CCC[C@H](C)CCC[C@H](C)CCCC(C)C)CC2 [RRR-β-tocopherol] | 0.75 IU | 0.50 mg α-TE |
| Cc1cc(O)cc2c1O[C@](C)(CCC[C@H](C)CCC[C@H](C)CCCC(C)C)CC2 [RRR-δ-tocopherol] | 0.05 IU | 0.03 mg α-TE |
| Cc1c(O)cc2c(c1C)O[C@](C)(CCC[C@H](C)CCC[C@H](C)CCCC(C)C)CC2 [RRR-γ-tocopherol] | 0.15 IU | 0.10 mg α-TE |
| Cc1c(C)c2c(c(C)c1OC(=O)CCC(=O)O)CCC(C)(CCCC(C)CCCC(C)CCCC(C)C)O2 (racemic) [all rac-α-tocopheryl succinate] | 0.89 IU | 0.60 mg α-TE |
| Cc1c(C)c2c(c(C)c1O)CCC(C)(CCCC(C)CCCC(C)CCCC(C)C)O2 (racemic) [all rac-α-tocopherol] | 1.10 IU | 0.74 mg α-TE |
| CC(=O)Oc1c(C)c(C)c2c(c1C)CCC(C)(CCCC(C)CCCC(C)CCCC(C)C)O2 (racemic) [all rac-α-tocopheryl acetate] | 1.00 IU | 0.67 mg α-TE |
| CC(=O)Oc1c(C)c(C)c2c(c1C)CC[C@@](C)(CCC[C@H](C)CCC[C@H](C)CCCC(C)C)O2 [RRR-α-tocopheryl acetate] | 1.36 IU | 0.91 mg α-TE |
| CC(C)=CCC/C(C)=C/CC/C(C)=C/CC[C@]1(C)CCc2c(C)c(O)cc(C)c2O1 [RRR-β-tocotrienol] | 0.08 IU | 0.05 mg α-TE |
| Cc1c(C)c2c(c(C)c1OC(=O)CCC(=O)O)CC[C@@](C)(CCC[C@H](C)CCC[C@H](C)CCCC(C)C)O2 [RRR-α-tocopheryl succinate] | 1.21 IU | 0.81 mg α-TE |

System: muscarinic acetylcholine receptor
Assay: oxotremorine-induced membrane potential change in PC12 cells after incubation with nutrients (receptor functionality)
Type: cell-based
Details: 1 day of incubation, then 50 μM oxotremorine, percentage change compared to control conditions
Method: After 1 day of incubation the medium+additions were replaced by control medium and the cells were stimulated with 50 μM oxotremorine, an agonist at the muscarinic acetylcholine receptor, involved in learning and memory. Oxotremorine induces a depolarization of the membrane which can be measured as a change in membrane potential. At a fixed dose of the agonist, increases in membrane potential are thought to reflect improvements in receptor functioning.

| SMILES | membrane potential change |
| --- | --- |
| O=c1ccn([C@@H]2O[C@H](COP(=O)(O)O)[C@@H](O)[C@H]2O)c(=O)[nH]1 [UMP, uridine monophosphate] | did not affect membrane potential change |

System: PC12 cells
Assay: survival of PC12 cells during incubation with nutrients
Type: cell-based
Details: control medium plus nutrient

| SMILES | cell death on incubation |
| --- | --- |
| CC/C=C\C/C=C\C/C=C\C/C=C\C/C=C\C/C=C\CCC(=O)O [DHA, docosahexaenoic acid] | led to cell death |

System: APP/PS1 mice
Assay: abeta plaque burden in hippocampus of APP/PS1 mice fed enriched diets
Type: in vivo
Details: diet fed 3 months from 3 to 6 months of age, compared to control diet
Text: (§1) These mice start showing plaques in their brains as early as 4-5 months of age and are considered a good model for AD in scientific literature.
(§2) The diets were fed for a period of 3 months until the age of 6 months. Thereafter the mice were sacrificed and their brains processed for abeta plaque analyses and neurodegeneration analyses. The brain was cut into thin slices using a vibratome and the slices were stained for abeta using an antibody recognizing human abeta and for neurodegeneration using the amino-cupric staining The total number of plaques in the hippocampus was counted and the total surface of the area covered by plaques (plaque burden) was determined. Total surface area covered with neuritic plaques (staining positive for amino-cupric) was determined to measure the level of neurodegeneration.

| SMILES | plaque burden in the hippocampus |
| --- | --- |
| O=c1ccn([C@@H]2O[C@H](COP(=O)(O)O)[C@@H](O)[C@H]2O)c(=O)[nH]1 [UMP, uridine monophosphate] | not affected |

System: APP/PS1 mice
Assay: neurodegeneration (amino-cupric staining of neuritic plaques) in APP/PS1 mice fed enriched diets
Type: in vivo
Details: diet fed 3 months from 3 to 6 months of age, compared to control diet
Text: as §1, §2

| SMILES | level of neurodegeneration |
| --- | --- |
| O=c1ccn([C@@H]2O[C@H](COP(=O)(O)O)[C@@H](O)[C@H]2O)c(=O)[nH]1 [UMP, uridine monophosphate] | did not differ from the control |
